# Columns and labels:
# [1] = target: human IDO enzyme (IDO1) (Homo sapiens (Human), UniProt P14902); test: IDO1 enzyme assay; type: biochemical; settings: for inhibition at 0.5 µM: read-out: IDO1 (inhibition % at 500 nM)
# Method: The compounds were initially prepared in DMSO at 10 mM, then diluted in MES buffer to desired concentration. […] The mixture was centrifuged for 1 minute, then pre-incubated at room temperature for 30 minutes. […] The resulting reaction mixture was incubated at 25° C. for 40 minutes. The reaction was terminated by adding 50 ul of 30% (w/v) trichloroacetic acid. The sample was further incubated for 30 min at 60° C. and centrifuged at 2000 rpm for 5 min to remove precipitated protein. The supernatant was used to mix with an equal volume of Ehrlich's reagent (2% w/v p-dimethylaminobenzaldehyde in glacial acetic acid), then mixture was incubated at room temperature for 10 minutes. OD value was read at 490 nm in a spectrophotometer.
# wherein High control=no compound; Low control=no enzyme and no compound.
# IC50 values were calculated by fitting the doseresponse curves with Xlfit excel add-in version 4.3.1.
# [2] = target: human TDO enzyme (Homo sapiens (Human), UniProt P48775); test: TDO enzyme assay; type: biochemical; settings: for inhibition at 1 µM: read-out: TDO (inhibition % at 1000 nM)
# Chain of human TDO enzyme (P48775 whole entry): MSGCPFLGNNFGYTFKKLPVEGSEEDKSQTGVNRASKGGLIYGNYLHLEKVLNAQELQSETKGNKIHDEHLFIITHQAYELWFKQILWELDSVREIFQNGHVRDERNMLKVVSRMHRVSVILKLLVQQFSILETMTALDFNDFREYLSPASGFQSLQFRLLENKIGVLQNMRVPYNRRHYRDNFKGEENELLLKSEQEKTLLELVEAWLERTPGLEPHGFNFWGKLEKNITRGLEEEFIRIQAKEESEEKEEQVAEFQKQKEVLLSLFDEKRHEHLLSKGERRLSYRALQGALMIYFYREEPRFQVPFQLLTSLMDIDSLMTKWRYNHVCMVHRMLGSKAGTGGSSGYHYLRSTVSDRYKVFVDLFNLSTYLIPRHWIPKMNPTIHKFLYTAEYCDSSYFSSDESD
# Method: In vitro TDO enzymatic activity was determined in a mixture of 50 mM potassium phosphate buffer, pH 6.5; 200 nM human TDO enzyme, 300 μM L-Tryptophan, 0.2 mg/mL Catalase, 20 mM ascorbic Acid and 20 μM Methylene Blue. 100× compounds were prepared in DMSO from 1 mM, then diluted three fold, 8 doses in total. 2 μL compounds were added to 96 well plate, followed by addition of 100 μL 400 nM TDO and 0.4 mg/ml catalase in each well. The mixture was centrifuged for 1 minute, then pre-incubated at room temperature for 10 minutes. The reaction was started by the addition of 100 μL mixture of 600 μM L-Tryptophan, 40 μM methylene blue and 40 mM ascorbic acid in 50 mM potassium phosphate buffer, pH 6.5. […] Copy slope data from Synergy program, and convert slope values to inhibition values. Percent inhibition=(max−conversion)/(max−min)*100. “max” stands for high control; “min” stands for low control. Fit the data in GraphPad Prism5.0 to obtain IC50 values. Equation used is: Y=Bottom+(Top−Bottom)/(1+10^((Log IC50−X)*HillSlope).
# Chain of human IDO enzyme (IDO1) (P14902 whole entry): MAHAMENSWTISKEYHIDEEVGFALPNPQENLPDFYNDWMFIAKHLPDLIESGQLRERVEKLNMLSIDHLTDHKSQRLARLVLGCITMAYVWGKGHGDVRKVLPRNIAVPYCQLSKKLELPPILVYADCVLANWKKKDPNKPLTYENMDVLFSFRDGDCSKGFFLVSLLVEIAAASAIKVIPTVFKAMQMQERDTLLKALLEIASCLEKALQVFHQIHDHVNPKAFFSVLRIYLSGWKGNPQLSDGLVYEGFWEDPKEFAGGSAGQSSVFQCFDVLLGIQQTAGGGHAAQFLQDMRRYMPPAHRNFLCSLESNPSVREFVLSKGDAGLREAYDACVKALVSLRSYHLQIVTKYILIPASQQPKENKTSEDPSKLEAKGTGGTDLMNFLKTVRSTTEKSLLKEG
inhibition at 1 µM [2] [%],SMILES,IC50 [1] [nM],IC50 [2] [nM],inhibition at 0.5 µM [1] [%]
–,"O=[N+]([O-])c1cc(C(F)(F)F)ccc1N1CCC(C(O)CC2c3ccccc3-c3cncn32)CC1 (stereo not shown) [Compound 9, 2-(5H-imidazo[5,1-a]isoindol-5-yl)-1-(1-(2-nitro-4-(trifluoromethyl)phenyl)piperidin-4-yl)ethanol]",< 500,< 200,–
> 50,"OC(C1CCCCC1)C1(C2c3ccccc3-c3cncn32)CC1 (stereo not shown) [Compound 13, (1-(5H-imidazo[5,1-a]isoindol-5-yl)cyclopropyl)(cyclohexyl) methanol]",–,–,–
> 50,"OC(CC1c2ccccc2-c2cncn21)C1CCN(C2CC2)CC1 (stereo not shown) [Compound 3, 1-(1-cyclopropylpiperidin-4-yl)-2-(5H-imidazo[5,1-a]isoindol-5-yl)ethanol]",–,–,–
–,"OC(CC1c2c(F)cccc2-c2cncn21)C12CCC(O)(CC1)CC2 (stereo not shown) [Compound 16, 4-(2-(6-fluoro-5H-imidazo[5,1-a]isoindol-5-yl)-1-hydroxyethyl)bicyclo[2.2.2]octan-1-ol]",< 100,< 200,–
–,"OC(CC1c2c(F)cccc2-c2cncn21)C12C[C@@H]3C[C@@H](CC(O)(C3)C1)C2 (stereo partly drawn) [Compound 15d-1, (1s,3r,5R,7S)-3-(2-(6-fluoro-5H-imidazo[5,1-a]isoindol-5-yl)-1-hydroxyethyl)adamantan-1-ol]",> 500,–,–
–,"OC(CC1c2ccccc2-c2cncn21)C12C[C@@H]3C[C@@H](CC(O)(C3)C1)C2 (stereo partly drawn) [Compound 14f, (1s,3r,5R,7S)-3-(1-hydroxy-2-(5H-imidazo[5,1-a]isoindol-5-yl)ethyl)adamantan-1-ol]",< 100,< 200,–
–,"OC(CC1c2c(F)cccc2-c2cncn21)C12C[C@@H]3C[C@@H](CC(O)(C3)C1)C2 (stereo partly drawn) [Compound 15d, (1s,3r,5R,7S)-3-(2-(6-fluoro-5H-imidazo[5,1-a]isoindol-5-yl)-1-hydroxyethyl)adamantan-1-ol]",< 100,< 200,–
–,"OC(CC1c2c(F)cccc2-c2cncn21)C12CC3CC(CC(C3)C1)C2 (stereo not shown) [Compound 15e, 1-((3r,5r,7r)-adamantan-1-yl)-2-(6-fluoro-5H-imidazo[5,1-a]isoindol-5-yl)ethanol]",< 100,< 500,–
–,"O=[N+]([O-])c1ccccc1N1CCC(C(O)CC2c3ccccc3-c3cncn32)CC1 (stereo not shown) [Compound 7, 2-(5H-imidazo[5,1-a]isoindol-5-yl)-1-(1-(2-nitrophenyl)piperidin-4-yl)ethanol]",–,–,> 50
–,"OC(CC1c2c(F)cccc2-c2cncn21)C12C[C@@H]3C[C@@H](CC(O)(C3)C1)C2 (stereo partly drawn) [Compound 15d-4, (1s,3r,5R,7S)-3-(2-(6-fluoro-5H-imidazo[5,1-a]isoindol-5-yl)-1-hydroxyethyl)adamantan-1-ol]",> 500,–,–
–,"OC(CC1c2c(F)cccc2-c2cncn21)C12C[C@@H]3C[C@@H](CC(O)(C3)C1)C2 (stereo partly drawn) [Compound 15d-3, (1s,3r,5R,7S)-3-(2-(6-fluoro-5H-imidazo[5,1-a]isoindol-5-yl)-1-hydroxyethyl)adamantan-1-ol]",< 100,–,–
–,"OC(CC1c2c(F)cccc2-c2cncn21)C1C2CC3CC1CC(O)(C3)C2 [Compound 18k-2, (1s,3R,5S,7s)-4-(2-(6-fluoro-5H-imidazo[5,1-a]isoindol-5-yl)-1-hydroxyethyl)adamantan-1-ol]",< 100,–,–
–,"OC(CC1c2c(F)cccc2-c2cncn21)C12C[C@@H]3C[C@@H](CC(O)(C3)C1)C2 (stereo partly drawn) [Compound 15d-2, (1s,3r,5R,7S)-3-(2-(6-fluoro-5H-imidazo[5,1-a]isoindol-5-yl)-1-hydroxyethyl)adamantan-1-ol]",> 500,–,–
–,"OC(CC1c2c(F)cccc2-c2cncn21)C1C2CC3CC1CC(O)(C3)C2 [Compound 18k-1, (1s,3R,5S,7s)-4-(2-(6-fluoro-5H-imidazo[5,1-a]isoindol-5-yl)-1-hydroxyethyl)adamantan-1-ol]",< 500,–,–
–,"OC(CC1c2ccccc2-c2cncn21)C1CCN(c2ccccc2)CC1 (stereo not shown) [Compound 1, 2-(5H-imidazo[5,1-a]isoindol-5-yl)-1-(1-phenylpiperidin-4-yl)ethanol]",–,–,> 50
> 50,"OC(CC1c2ccccc2-c2cncn21)C1CCN(c2ccc(C(F)(F)F)cc2)CC1 (stereo not shown) [Compound 8, 2-(5H-imidazo[5,1-a]isoindol-5-yl)-1-(1-(4-(trifluoromethyl)phenyl)piperidin-4-yl)ethanol]",–,–,> 50
–,"OC1[C@@H]2CC3C[C@H]1CC(C(O)CC1c4c(F)cccc4-c4cncn41)(C3)C2 (stereo partly drawn) [Compound 17, (1R,2s,3S,5s,7s)-5-(2-(6-fluoro-5H-imidazo[5,1-a]isoindol-5-yl)-1-hydroxyethyl)adamantan-2-ol]",< 100,< 200,–

SMILES,inhibition at 1 µM [2] [%],IC50 [1] [nM],IC50 [2] [nM],inhibition at 0.5 µM [1] [%]
"OC(CC1c2ccccc2-c2cncn21)C12CC3CC(CC(C3)C1)C2 (stereo not shown) [Compound 10, 1-((3r,5r,7r)-adamantan-1-yl)-2-(5H-imidazo[5,1-a]isoindol-5-yl)ethanol]",> 50,< 500,–,–
"FC(F)(CC1c2ccccc2-c2cncn21)C1CCCCC1 (stereo not shown) [Compound 6, 5-(2-cyclohexyl-2,2-difluoroethyl)-5H-imidazo[5,1-a]isoindole]",> 50,–,–,> 50

# From patent US10358451B2, “Heterocycles useful as IDO and TDO inhibitors” (Hangzhou Innogate Pharma Co., Ltd., priority 2015, dated 2019)
